Assay results reported in patent publication US8309718B2, “4-pyrazolyl-N-arylpyrimidin-2-amines and 4-pyrazolyl-N-heteroarylpyrimidin-2-amines as janus kinase inhibitors” (Incyte Corporation, priority 2007, dated 2012).

Biological target: T1, human JAK2 (Homo sapiens, UniProt O60674)
T1 construct: JAK2 (a.a. 828-1132); His tag (N); made in house; host or cells: insect cells (baculovirus)
Assay: In vitro JAK kinase assay (HTRF, phosphorylation of biotinylated peptide)
Type: biochemical
Details: catalytic domain a.a. 828-1132, 30 μM ATP, 500 nM peptide, room temperature 1 hr; read-out: JAK-2 IC50
In short: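 His-tagged human JAK2 catalytic domain (a.a. 828-1132), baculovirus/insect-cell expressed; phosphorylation of 500 nM biotinylated peptide at 30 μM ATP in 50 mM Tris pH 7.8, 100 mM NaCl, 5 mM DTT, 0.01% BSA. 1 h at room temperature, EDTA stop, HTRF read (Eu-Py20/SA-APC); IC50.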

T1 sequence (O60674 828-1132): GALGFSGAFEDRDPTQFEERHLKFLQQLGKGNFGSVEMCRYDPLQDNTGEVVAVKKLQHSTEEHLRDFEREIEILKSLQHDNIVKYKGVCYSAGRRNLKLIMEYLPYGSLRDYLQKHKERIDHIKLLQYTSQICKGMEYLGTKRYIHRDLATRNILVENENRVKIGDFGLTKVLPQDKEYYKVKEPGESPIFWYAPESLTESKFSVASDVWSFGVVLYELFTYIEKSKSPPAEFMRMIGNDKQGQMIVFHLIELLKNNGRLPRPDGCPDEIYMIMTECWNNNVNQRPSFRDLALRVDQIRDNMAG

IC50: < 100 nM
Structure (SMILES): N#CCC1(n2cc(-c3ccnc(Nc4ccc(C(=O)N5[C@@H]6CC[C@H]5C[C@@H](O)C6)cc4)n3)cn2)CC(C#N)C1 (stereo partly drawn) [Example 300, 3-(cyanomethyl)-3-(4-(2-(4-((3-endo)-3-hydroxy-8-azabicyclo[3.2.1]octane-8-carbonyl)phenylamino)pyrimidin-4-yl)-1H-pyrazol-1-yl)cyclobutanecarbonitrile]
